# Values of other authors in US12508224B2, “Treating microvascular dysfunction” (EndoProtech, Inc., priority 2018, dated 2025).
# Test system: glycocalyx
smiles,measurement,value
"CCCCCCCCCCCCC/C=C/[C@@H](O)[C@@H](N)COP(=O)(O)O [SP, sphingosine-1-phosphate]",levels needed in plasma to protect the stability of the glycocalyx,100 to 300 nM
